Data: PMC7546796, “Myricanol Inhibits the Type III Secretion System of Salmonella enterica Serovar Typhimurium by Interfering With the DNA-Binding Activity of HilD” (Frontiers in Microbiology, 2020)

Target: HilD (Salmonella enterica, UniProt P0CL08)
Assay: microscale thermophoresis with dye-labeled purified HilD; supported by thermal shift, DARTS and EMSA
Assay type: binding

Chain of HilD (P0CL08 whole entry): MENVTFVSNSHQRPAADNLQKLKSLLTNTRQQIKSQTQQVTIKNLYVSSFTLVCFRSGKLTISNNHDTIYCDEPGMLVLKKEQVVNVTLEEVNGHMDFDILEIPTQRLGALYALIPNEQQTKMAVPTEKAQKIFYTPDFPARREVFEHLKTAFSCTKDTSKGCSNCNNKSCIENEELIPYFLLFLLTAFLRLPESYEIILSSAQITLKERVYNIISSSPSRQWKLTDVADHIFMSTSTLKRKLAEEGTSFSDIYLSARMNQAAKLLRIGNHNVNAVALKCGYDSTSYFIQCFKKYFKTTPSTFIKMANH

Molecule COc1c2cc(c(O)c1OC)CCCC[C@@H](O)CCc1ccc(O)c-2c1 [compound 1, myricanol] has a Kd of 1.38 ± 0.53 µM.
